Key:
[1] = tested on: 293 KT14-KO and KPB1-KD cells; assay: FACS binding to cells with only one target present; parameters: species or system human; settings: CD47 knock-out or Pgp knock-down 293T cells, FIG. 4
Method: (§1) In FIG. 4A-4B, the binding of the bispecific antibody is shown by FACS analysis against a variety of cell lines. The first scan (left panel in FIG. 4A and FIG. 4B) illustrates binding of the antibody to cells co-expressing both targets, (Pgp and CD47). […] FIG. 4A-4B further show binding with titrated antibody concentrations of 600 nM, 200 nM, 66 nM, 7.4 nM and 2 nM, with the signal measured from isotype and no antibody control also provided. The respective antibody concentrations are indicated in the left panel of FIG. 4A and FIG. 4B, and the measured signal from these different concentrations are generally overlapping in the middle and right panels of FIGS. 4A and 4B. FIG. 4A and FIG. 4B represent results obtained from two different batches of antibody.

naïve 293T cells = assay: Enhanced cell killing (chemosensitization) of naïve 293T cells with chemotherapeutic titration; assay type: cell-based, human
Method: (§2) HEK 293T, MCF-7, N6ADR and SKNF7 cell lines expressing Pgp were obtained from the American Type Culture Collection. N6/ADR cells is also referred to as NALM6/ADR cells. All cell lines and lines derived from them were maintained in RPMI 1640 or DMEM supplemented with up to 10% fetal bovine serum (Sigma), nonessential amino acids, and 2 mmol/L L-glutamine at 37° C. and 5% CO2 in a humidified incubator (unless otherwise indicated). Cells were used as supplied or were modified to overexpress (Ox) Pgp or were subject to having Pgp expression knocked down (KD) with lentiviral-mediated short hairpin RNA or knock out (KO) of the functional CD47 gene by CRISPR/Cas-mediated knock out technology essentially as described (Cong, L. et al. (2013) Science 339, 819-823). For vincristine and paclitaxel IC50 determination, cells were plated in normal growth medium and allowed to adhere overnight. Paclitaxel or vincristine (Sigma) were added in a dilution series and any modulators were added within ranges of 0 to 500 μM/L. Cell viability was measured 72 h later using the Celltiter-Glo Luminescent Cell Viability Assay (Promega).
FIG. 8 provides comparisons of binding and enhanced cell killing by different bispecific antibodies (with various humanized or chimerized heavy or light chain combinations). […] Columns 5-8 (“Binding (293)”, “Binding (293 KO CD47)”, Binding (293 KO CD47, OX ABCB1)”, and “Binding (293 OX ABCB1)”) provide FACS mean fluorescence intensities of antibodies binding to the indicated cell lines compared with non-binding control antibodies: “−”=˜zero, “±”=0 to ˜0.5 Log shift, “+”=˜1 Log shift, “++”=1→2 Log shift (see FIG. 3A for examples of non-binding controls and binding antibodies).

N6ADR cells = assay: Paclitaxel sensitization of N6ADR cells in vitro; assay type: cell-based, human; settings: FIG. 5, 6; compared to chemo only
Method: as §2
FIG. 5 and FIG. 6A-6C illustrate the enhanced killing of cells, by the antineoplastic agent paclitaxel, when cells are bound by the 15D3.aCD47:MRK16 bispecific antibody (highlighted with arrows).

A2780ADR cells = assay: A2780ADR subcutaneous tumors in mice; assay type: in vivo
Method: A2780ADR MDR cancer cell line and HeyT30 MDR cancer cell line were injected into mice according to protocols described in Example 3. Mice were treated with BisP1.1 bispecific antibody with or without paclitaxel.
Cells: A2780ADR cell line (Sigma, catalogue no 93112520) is an epithelial ovarian carcinoma, derived from parent A2780 cell line (Sigma, catalogue no 93112519), was used in this study.
Mice: 5-6-weeks-old female nude mice (Charles River) were used in this study.
All animal maintenance, handling, surveillance, and animal procedures were performed in accordance with and approval from the APLAC protocol.
A2780ADR subcutaneous tumors: Mice were randomized into six groups of five mice each—(i) Control isotype IgG1 3 mg/kg, (ii) Control isotype IgG1 3 mg/kg and 20 mg/kg of paclitaxel, (iii) KNJYBisP1.1 3 mg/kg, (iv) KNJYBisP1.1 3 mg/kg and 20 mg/kg of paclitaxel, (v) KNJYBisP1.1 N297A 3 mg/kg and (vi) KNJYBisP1.1 N297A 3 mg/kg and 20 mg/kg of paclitaxel. Antibody and paclitaxel were dosed intraperitoneally twice a week for two consecutive weeks.
A2780ADR subcutaneous tumors: Once tumors reached 100-150 mm^3, mice were randomized into ten groups of five mice each—(i) Control isotype IgG1 3 mg/kg, (ii) Control isotype IgG1 3 mg/kg and 20 mg/kg of paclitaxel, (iii) KNJYBisP1.1 3 mg/kg, (iv) KNJYBisP1.1 3 mg/kg and 20 mg/kg of paclitaxel, (v) 15D3 hybridoma monoclonal Ab 3 mg/kg, (vi) 15D3 hybridoma 3 mg/kg and 20 mg/kg of paclitaxel, (vii) KT14/KT14 monoclonal Ab 3 mg/kg, (viii) KT14/KT14 monoclonal Ab 3 mg/kg and 20 mg/kg of paclitaxel, (ix) 15D3 hybridoma+KT14/KT14, 1.5 mg each and (x) 15D3 hybridoma+KT14/KT14, 1.5 mg each and 20 mg/kg of paclitaxel. Antibodies and paclitaxel were dosed intraperitoneally twice a week for two consecutive weeks.

293T naïve cells = assay: FACS binding to cells co-expressing Pgp and CD47; parameters: species or system human; settings: FIG. 4
Method: as §1

KBisP1.1: bispecific anti-MDR1/anti-CD47 antibody: 15D3 heavy chain, 5F9 (KT14) heavy chain, common MRK16 light chain, human IgG1
FACS binding when only one of the targets is present [1]: does not show significant binding
FACS binding when only one of the targets is present ([1]; listed as HC-15D3:HC-5F9:LC-MRK16): significantly reduced binding
sensitivity of naïve 293T cells to paclitaxel (naïve 293T cells; FIG. 5, 6, compared to chemo only): enhanced
in vitro killing of naïve 293T with vincristine (naïve 293T cells; antibody 25 nM, compared to vincristine alone, FIG. 7): enhanced in vitro killing
Killing: enhanced 293 naïve cell-killing (sensitization) (naïve 293T cells; paclitaxel titration, FIG. 8): ++ (≥2 Log shift)
sensitivity of N6ADR cells to paclitaxel (N6ADR cells): enhanced
chemosensitizing effect compared with monospecific antibodies (A2780ADR cells; 3 mg/kg with paclitaxel 20 mg/kg, FIG. 28): stronger compared to either the anti-MDR1 15D3 hybridoma antibody or anti-CD47 KT14 monoclonal antibody
tumor volume (A2780ADR cells; Example 4, with or without paclitaxel, FIG. 18): efficacious in reducing A2780ADR MDR cancer cell tumor volume with or without paclitaxel
chemosensitization of A2780ADR tumors to paclitaxel (A2780ADR cells; antibody 3 mg/kg, paclitaxel 20 mg/kg): chemosensitizes
FACS binding when both targets are co-expressed (293T naïve cells): specific binding

— US12331121B2, “Efflux pump-cancer antigen multi-specific antibodies and compositions, reagents, kits and methods related thereto” (William Robert Arathoon Living Trust Dated August 29, 2016, priority 2019, dated 2025)
